Reference: patent US20250129078A1, “ERBB2 INHIBITORS” (Cogent Biosciences, Inc., priority 2023, published 2025)

Biological target: EGFR WT (Homo sapiens (Human), UniProt P00533)
Assay: ErbB enzyme assay (CisBio HTRF-KinEASE-TK), EGFR WT
Assay type: biochemical
Details: ATP at Km (25 μM), 1 h incubation
Protocol: In vitro enzyme assays based on CisBio HTRF-KinEASE-TK technology were used to determine compound potencies. […]. Compounds were prepared as a three-fold serial dilution in DMSO and added to the assay to give the appropriate final concentration. After a 1 h incubation at ambient temperature, the reaction was quenched by adding 10 μL of 62.5 nM Sa-XL665 and 0.25×TK-Ab-Cryptate in HTRF detection buffer (all from CisBio, part of cat #62TKOPEC). After another 1 h incubation at ambient temperature, the extent of substrate phosphorylation was determined using a PerkinElmer EnVision multimode plate reader via time-resolved fluorescence dual wavelength detection. The percent of control (POC) was calculated using the ratio of emission at […] to the emission at 620 nm. One hundred POC was determined using DMSO only controls (no test compounds present) and zero POC was determined using pre-quenched controls reactions. A 4-parameter logistic equation was fit to the POC values as a function of the test compound concentration and the IC50 value was determined as the point where the curve crossed 50 POC.

Sequence of EGFR WT (P00533 25-1210): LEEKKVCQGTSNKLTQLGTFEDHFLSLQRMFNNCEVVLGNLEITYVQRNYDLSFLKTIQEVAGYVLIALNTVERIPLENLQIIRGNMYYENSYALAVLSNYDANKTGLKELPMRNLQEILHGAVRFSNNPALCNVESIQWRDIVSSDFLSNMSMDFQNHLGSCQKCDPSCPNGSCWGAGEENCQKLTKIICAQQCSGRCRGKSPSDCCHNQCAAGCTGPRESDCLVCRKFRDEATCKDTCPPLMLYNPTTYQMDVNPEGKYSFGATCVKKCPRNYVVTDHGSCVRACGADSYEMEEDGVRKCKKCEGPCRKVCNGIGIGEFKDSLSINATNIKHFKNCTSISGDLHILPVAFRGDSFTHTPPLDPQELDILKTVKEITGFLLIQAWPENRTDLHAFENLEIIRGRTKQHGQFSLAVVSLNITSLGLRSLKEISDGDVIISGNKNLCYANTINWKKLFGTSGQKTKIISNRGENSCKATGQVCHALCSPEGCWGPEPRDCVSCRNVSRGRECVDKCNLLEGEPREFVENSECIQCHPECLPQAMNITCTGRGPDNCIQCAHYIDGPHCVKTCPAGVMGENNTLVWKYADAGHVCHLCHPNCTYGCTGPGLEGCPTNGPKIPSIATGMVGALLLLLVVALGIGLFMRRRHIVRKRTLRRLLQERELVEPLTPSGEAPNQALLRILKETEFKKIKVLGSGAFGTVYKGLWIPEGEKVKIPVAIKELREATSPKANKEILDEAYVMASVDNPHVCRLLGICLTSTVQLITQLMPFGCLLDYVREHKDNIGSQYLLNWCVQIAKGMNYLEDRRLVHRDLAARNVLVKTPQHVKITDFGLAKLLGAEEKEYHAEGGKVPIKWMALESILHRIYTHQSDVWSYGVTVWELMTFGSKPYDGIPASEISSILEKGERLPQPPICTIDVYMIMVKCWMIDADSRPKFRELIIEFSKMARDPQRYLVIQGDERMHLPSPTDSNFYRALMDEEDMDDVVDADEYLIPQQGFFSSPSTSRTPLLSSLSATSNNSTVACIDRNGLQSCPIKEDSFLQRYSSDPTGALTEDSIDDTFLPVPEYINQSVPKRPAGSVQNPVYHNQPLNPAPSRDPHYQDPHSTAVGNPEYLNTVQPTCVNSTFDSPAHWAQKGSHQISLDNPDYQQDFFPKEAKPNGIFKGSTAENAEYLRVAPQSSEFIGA

Row | Structure (SMILES) | IC50
1 | C=CC(=O)N1CC2CC1CN2c1ccc2ncnc(Nc3ccc(Oc4ccc5c(c4)nnn5C)c(C)c3)c2n1 (stereo not drawn) [Compound 81, 1-(5-(4-((3-methyl-4-((1-methyl-1H-benzo[d][1,2,3]triazol-5-yl)oxy)phenyl)amino)pyrido[3,2-d]pyrimidin-6-yl)-2,5-diazabicyclo[2.2.1]heptan-2-yl)prop-2-en-1-one] | < 50 nM
2 | C=CC(=O)N1CC2CCC1CN2c1ccc2ncnc(Nc3ccc(Oc4ccc5c(c4)nnn5C)c(C)c3)c2n1 (stereo not drawn) [Compound 82, 1-(5-(4-((3-methyl-4-((1-methyl-1H-benzo[d][1,2,3]triazol-5-yl)oxy)phenyl)amino)pyrido[3,2-d]pyrimidin-6-yl)-2,5-diazabicyclo[2.2.2]octan-2-yl)prop-2-en-1-one] | < 50 nM
3 | C=CC(=O)N1CCN(c2ccc3ncnc(Nc4ccc(Oc5ccc6c(c5)nnn6C)c(C)c4)c3n2)C[C@@H]1CC#N [Compound 83, (S)-2-(1-acryloyl-4-(4-((3-methyl-4-((1-methyl-1H-benzo[d][1,2,3]triazol-5-yl)oxy)phenyl)amino)pyrido[3,2-d]pyrimidin-6-yl)piperazin-2-yl)acetonitrile] | < 50 nM
4 | C=CC(=O)N1CCN(c2ccc3ncnc(Nc4ccc(Oc5ccc6c(c5)nnn6C)c(C)c4)c3n2)C[C@H]1CC#N [Compound 84, (R)-2-(1-acryloyl-4-(4-((3-methyl-4-((1-methyl-H-benzo[d][1,2,3]triazol-5-yl)oxy)phenyl)amino)pyrido[3,2-d]pyrimidin-6-yl)piperazin-2-yl)acetonitrile] | < 50 nM
5 | C=C(F)C(=O)N1CCN(c2ccc3ncnc(Nc4ccc(Oc5ccc6c(c5)nnn6C)c(C)c4)c3n2)C[C@@H]1CC#N [Compound 85, (S)-2-(1-(2-fluoroacryloyl)-4-(4-((3-methyl-4-((1-methyl-1H-benzo[d][1,2,3]triazol-5-yl)oxy)phenyl)amino)pyrido[3,2-d]pyrimidin-6-yl)piperazin-2-yl)acetonitrile] | 500 to 1000 nM
6 | C=C(F)C(=O)N1CCN(c2ccc3ncnc(Nc4ccc(Oc5ccc6c(c5)nnn6C)c(C)c4)c3n2)C[C@H]1CC#N [Compound 86, (R)-2-(1-(2-fluoroacryloyl)-4-(4-((3-methyl-4-((1-methyl-1H-benzo[d][1,2,3]triazol-5-yl)oxy)phenyl)amino)pyrido[3,2-d]pyrimidin-6-yl)piperazin-2-yl)acetonitrile] | ≥ 1000 nM
7 | C=C(F)C(=O)N1C2CCC1CN(c1ccc3ncnc(Nc4ccc(Oc5ccc6c(c5)nnn6C)c(C)c4)c3n1)C2 [Compound 87, 2-fluoro-1-(3-(4-((3-methyl-4-((1-methyl-1H-benzo[d][1,2,3]triazol-5-yl)oxy)phenyl)amino)pyrido[3,2-d]pyrimidin-6-yl)-3,8-diazabicyclo[3.2.1]octan-8-yl)prop-2-en-1-one] | 500 to 1000 nM
8 | C=C(F)C(=O)N1CC2CCC1CN2c1ccc2ncnc(Nc3ccc(Oc4ccc5c(c4)nnn5C)c(C)c3)c2n1 (stereo not drawn) [Compound 88, 2-fluoro-1-(5-(4-((3-methyl-4-((1-methyl-1H-benzo[d][1,2,3]triazol-5-yl)oxy)phenyl)amino)pyrido[3,2-d]pyrimidin-6-yl)-2,5-diazabicyclo[2.2.2]octan-2-yl)prop-2-en-1-one] | ≥ 1000 nM
9 | C=CC(=O)N1CCN(c2ccc3ncnc(Nc4ccc(Oc5ccc6c(c5)nnn6C)c(C)c4)c3n2)CC1(C)C [Compound 89, 1-(2,2-dimethyl-4-(4-((3-methyl-4-((1-methyl-1H-benzo[d][1,2,3]triazol-5-yl)oxy)phenyl)amino)pyrido[3,2-d]pyrimidin-6-yl)piperazin-1-yl)prop-2-en-1-one] | 50 to 100 nM
10 | C=CC(=O)N1CCN(c2ncc3ncnc(Nc4ccc(Oc5ccc6c(c5)nnn6C)c(C)c4)c3n2)C[C@@H]1COC [Compound 116, (R)-1-(2-(methoxymethyl)-4-(8-((3-methyl-4-((1-methyl-1H-benzo[d][1,2,3]triazol-5-yl)oxy)phenyl)amino)pyrimido[5,4-d]pyrimidin-2-y1)piperazin-1-yl)prop-2-en-1-one] | 100 to 500 nM
11 | C=CC(=O)N1CCN(c2ncc3ncnc(Nc4ccc(Oc5ccc6c(c5)nnn6C)c(C)c4)c3n2)C[C@H]1COC [Compound 120, (S)-1-(2-(methoxymethyl)-4-(8-((3-methyl-4-((1-methyl-1H-benzo[d][1,2,3]triazol-5-yl)oxy)phenyl)amino)pyrimido[5,4-d]pyrimidin-2-y1)piperazin-1-yl)prop-2-en-1-one] | 50 to 100 nM
12 | C=CC(=O)N[C@@H]1CCCN(c2ncc3ncnc(Nc4ccc(Oc5ccc6c(c5)nnn6C)c(C)c4)c3n2)C1 [Compound 125, (R)-N-(1-(8-((3-methyl-4-((1-methyl-1H-benzo[d][1,2,3]triazol-5-yl)oxy)phenyl)amino)pyrimido [5,4-d]pyrimidin-2-y1)piperidin-3-yl)acrylamide] | 100 to 500 nM
13 | C=CC(=O)N[C@H]1CCCN(c2ncc3ncnc(Nc4ccc(Oc5ccc6c(c5)nnn6C)c(C)c4)c3n2)C1 [Compound 126, (S)-N-(1-(8-((3-methyl-4-((1-methyl-1H-benzo[d][1,2,3]triazol-5-yl)oxy)phenyl)amino)pyrimido [5,4-d]pyrimidin-2-yl)piperidin-3-yl)acrylamide] | 500 to 1000 nM

Next, values leading:

Row | IC50 | Structure (SMILES)
14 | 50 to 100 nM | C=CC(=O)N1CCN(c2ccc3ncnc(Nc4ccc(Oc5ccc6c(c5)nnn6C)c(C)c4)c3n2)CC1 [Compound 92, 1-(4-(4-((3-methyl-4-((1-methyl-1H-benzo[d][1,2,3]triazol-5-yl)oxy)phenyl)amino)pyrido[3,2-d]pyrimidin-6-yl)piperazin-1-yl)prop-2-en-1-one]
15 | < 50 nM | C=CC(=O)N1CCN(c2ccc3ncnc(Nc4ccc(Oc5cc(F)c6c(c5)nnn6C)c(C)c4)c3n2)CC1 [Compound 97, 1-(4-(4-((4-((7-fluoro-1-methyl-1H-benzo[d][1,2,3]triazol-5-yl)oxy)-3-methylphenyl)amino)pyrido[3,2-d]pyrimidin-6-yl)piperazin-1-yl)prop-2-en-1-one]
16 | < 50 nM | C=CC(=O)N1CCN(c2nc3c(Nc4ccc(Oc5ccc6c(c5)nnn6C)c(C)c4)ncnc3cc2OC)CC1 [Compound 98, 1-(4-(7-methoxy-4-((3-methyl-4-((1-methyl-1H-benzo[d][1,2,3]triazol-5-yl)oxy)phenyl)amino)pyrido[3,2-d]pyrimidin-6-yl)piperazin-1-yl)prop-2-en-1-one]
17 | < 50 nM | C=CC(=O)N1CCN(c2nc3c(Nc4ccc(Oc5cc(F)c6c(c5)nnn6C)c(C)c4F)ncnc3cc2OC)CC1 [Compound 99, 1-(4-(4-((2-fluoro-4-((7-fluoro-1-methyl-1H-benzo[d][1,2,3]triazol-5-yl)oxy)-3-methylphenyl)amino)-7-methoxypyrido[3,2-d]pyrimidin-6-yl)piperazin-1-yl)prop-2-en-1-one]
18 | 500 to 1000 nM | C=CC(=O)N1CCN(c2ncc3ncnc(Nc4ccc(Oc5ccn6ncnc6c5)c(C)c4)c3c2F)CC1 [Compound 100, 1-(4-(4-((4-([1,2,4]triazolo[1,5-a]pyridin-7-yloxy)-3-methylphenyl)amino)-5-fluoropyrido[3,4-d]pyrimidin-6-yl)piperazin-1-yl)prop-2-en-1-one]
19 | < 50 nM | C=CC(=O)N1CCC(Oc2ncc3ncnc(Nc4ccc(Oc5cc(F)c6c(c5)nnn6C)c(C)c4)c3n2)CC1 [Compound 106, 1-(4-((8-((4-((7-fluoro-1-methyl-1H-benzo[d][1,2,3]triazol-5-yl)oxy)-3-methylphenyl)amino)pyrimido[5,4-d]pyrimidin-2-yl)oxy)piperidin-1-yl)prop-2-en-1-one]
20 | < 50 nM | C=CC(=O)N1CCN(c2ncc3ncnc(Nc4ccc(Oc5cc(F)c6c(c5)ncn6C)c(C)c4F)c3n2)CC1 [Compound 111, 1-(4-(8-((2-fluoro-4-((7-fluoro-1-methyl-1H-benzo[d]imidazol-5-yl)oxy)-3-methylphenyl)amino)pyrimido[5,4-d]pyrimidin-2-yl)piperazin-1-y1)prop-2-en-1-one]
21 | < 50 nM | C=CC(=O)N1CCN(c2ncc3ncnc(Nc4ccc(Oc5cc(OC)c6c(c5)nnn6C)c(C)c4)c3n2)CC1 [Compound 113, 1-(4-(8-((4-((7-methoxy-1-methyl-1H-benzo[d][1,2,3]triazol-5-yl)oxy)-3-methylphenyl)amino)pyrimido[5,4-d]pyrimidin-2-yl)piperazin-1-yl)prop-2-en-1-one]
22 | < 50 nM | C=CC(=O)N1CCN(c2ncc3ncnc(Nc4ccc(Oc5cnc6c(c5)ncn6C)c(C)c4F)c3n2)CC1 [Compound 118, 1-(4-(8-((2-fluoro-3-methyl-4-((3-methyl-3H-imidazo[4,5-b]pyridin-6-yl)oxy)phenyl)amino)pyrimido [5,4-d]pyrimidin-2-y1)piperazin-1-yl)prop-2-en-1-one]
23 | ≥ 1000 nM | C=CC(=O)N1CCN(c2ncc3ncnc(Nc4ccc(Oc5ccc6c(c5)nnn6C)c(C)c4)c3n2)C[C@H]1C(C)C [Compound 121, (R)-1-(2-isopropyl-4-(8-((3-methyl-4-((1-methyl-1H-benzo[d][1,2,3]triazol-5-yl)oxy)phenyl)amino)pyrimido[5,4-d]pyrimidin-2-yl)piperazin-1-yl)prop-2-en-1-one]
24 | ≥ 1000 nM | C=CC(=O)N1CCN(c2ncc3ncnc(Nc4ccc(Oc5ccc6c(c5)nnn6C)c(C)c4)c3n2)C[C@@H]1C(C)C [Compound 122, (S)-1-(2-isopropyl-4-(8-((3-methyl-4-((1-methyl-1H-benzo[d][1,2,3]triazol-5-yl)oxy)phenyl)amino)pyrimido[5,4-d]pyrimidin-2-yl)piperazin-1-y1)prop-2-en-1-one]
